In patent US20250215029A1 (Recludix Pharma, Inc., priority 2022, published 2025) one finds IC50 data, which are given here for twelve compounds.

Test [1] concerns the target T1, Recombinant STAT3 protein (STAT3 (G127-I722)) (Homo sapiens, UniProt P40763).
T1 construct: Recombinant STAT3 protein (STAT3 (G127-I722))
Description: STAT3 Fluorescence Polarization (FP) Assay. The format is binding. As to conditions: probe 5-FAM-GpYLPQTV-NH2 2 nM, 45-minute incubation. Here is the method:
STAT3 Fluorescence Polarization (FP) Assay
An FP assay was developed to determine IC50 values for test substances. Recombinant STAT3 protein (STAT3 (G127-I722)) at 25 nM was combined with a fluorescently labeled, phosphotyrosine peptide probe (5-FAM-GpYLPQTV-NH2) at 2 nM in FP buffer (10 mM HEPES pH 7.4, 50 mM NaCl, 1 mM EDTA, 0.05% Tween 20.2 mM DTT). 50 μL of STAT3-probe mixture was added to serial diluted compounds in black, 96-well plates (Greiner BioOne 655076) to a final concentration of 1% DMSO. Reaction components were mixed, and FP was measured after 45-minute incubation at room temperature using a Tecan Spark multimode plate reader. FP signal (mP) was plotted against the log concentration of the test substances and IC50 values were calculated by nonlinear regression analysis using GraphPad Prism software. For STAT3 FP assay, A=≤100 nM; B=>100-1000 nM; C=>1-10 μM; and D=>10 μM.
In general terms: Fluorescence polarisation rises when a labelled molecule tumbles more slowly, as on binding a larger partner.

The target of test [2] is T2, Recombinant STAT6 protein (STAT6 (W123-T658)) (Homo sapiens, UniProt P42226).
T2 construct: Recombinant STAT6 protein (STAT6 (W123-T658))
T2 sequence (P42226 123-658): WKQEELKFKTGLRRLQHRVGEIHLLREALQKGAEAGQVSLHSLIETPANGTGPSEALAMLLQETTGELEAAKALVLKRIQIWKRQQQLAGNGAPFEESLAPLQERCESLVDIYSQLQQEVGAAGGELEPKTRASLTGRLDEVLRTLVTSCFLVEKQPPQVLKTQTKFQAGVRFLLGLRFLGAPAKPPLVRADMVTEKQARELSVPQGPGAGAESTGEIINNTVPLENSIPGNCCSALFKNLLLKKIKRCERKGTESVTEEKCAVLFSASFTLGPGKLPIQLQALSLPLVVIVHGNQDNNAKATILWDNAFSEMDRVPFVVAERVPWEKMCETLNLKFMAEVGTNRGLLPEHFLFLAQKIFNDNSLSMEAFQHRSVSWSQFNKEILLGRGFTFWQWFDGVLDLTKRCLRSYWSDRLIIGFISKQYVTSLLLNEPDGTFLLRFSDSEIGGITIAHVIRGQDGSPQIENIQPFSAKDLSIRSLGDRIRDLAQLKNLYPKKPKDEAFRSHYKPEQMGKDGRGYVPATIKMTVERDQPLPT
Description: STAT6 Fluorescence Polarization (FP) Assay. The format is binding. The note with it: 45-minute incubation. The procedure:
STAT6 Fluorescence Polarization (FP) Assay
An FP assay was developed to determine IC50 values for test substances. Recombinant STAT6 protein (STAT6 (W123-T658)) at 250 nM was combined with a fluorescently labeled, phosphotyrosine peptide probe (5-FAM-Ap[…]-NH2) at 2 nM in FP buffer (10 mM HEPES pH 7.4, 50 mM NaCl, 1 mM EDTA, 0.05% Tween 20, 2 mM DTT). 50 μL of STAT6-probe mixture was added to serial diluted compounds in black, 96-well plates (Greiner BioOne 655076) to a final concentration of 1% DMSO. Reaction components were mixed, and FP was measured after 45-minute incubation at room temperature using a Tecan Spark multimode plate reader. FP signal (mP) was plotted against the log concentration of the test substances and IC50 values were calculated by nonlinear regression analysis using GraphPad Prism software. For STAT6 FP assay, A=≤300 nM; B=>300-3000 nM; C=>3-30 μM; and D=>30 μM.

[3] abbreviates: STAT3 (G127-I722) 25 nM, read-out: STAT3 (FP assay IC50 class).
Where [4] appears, read: STAT6 (W123-T658) 250 nM, probe 5-FAM-Ap[…]-NH2 2 nM, read-out: STAT6 (FP assay IC50 class).
[5] abbreviates: STAT6 (W123-T658) 250 nM, probe 5-FAM-ApYKPFQDLI-NH2 2 nM, read-out: STAT6 (FP assay IC50 class).
Setting [6] is: STAT3 25 nM, read-out: STAT3 (FP assay IC50).
Where [7] appears, read: STAT6 250 nM, probe 5-FAM-Ap[…]-NH2 2 nM, read-out: STAT6 (FP assay IC50).

Like-named read-outs stand apart in the source and are kept apart here.

T1 sequence (P40763 127-722): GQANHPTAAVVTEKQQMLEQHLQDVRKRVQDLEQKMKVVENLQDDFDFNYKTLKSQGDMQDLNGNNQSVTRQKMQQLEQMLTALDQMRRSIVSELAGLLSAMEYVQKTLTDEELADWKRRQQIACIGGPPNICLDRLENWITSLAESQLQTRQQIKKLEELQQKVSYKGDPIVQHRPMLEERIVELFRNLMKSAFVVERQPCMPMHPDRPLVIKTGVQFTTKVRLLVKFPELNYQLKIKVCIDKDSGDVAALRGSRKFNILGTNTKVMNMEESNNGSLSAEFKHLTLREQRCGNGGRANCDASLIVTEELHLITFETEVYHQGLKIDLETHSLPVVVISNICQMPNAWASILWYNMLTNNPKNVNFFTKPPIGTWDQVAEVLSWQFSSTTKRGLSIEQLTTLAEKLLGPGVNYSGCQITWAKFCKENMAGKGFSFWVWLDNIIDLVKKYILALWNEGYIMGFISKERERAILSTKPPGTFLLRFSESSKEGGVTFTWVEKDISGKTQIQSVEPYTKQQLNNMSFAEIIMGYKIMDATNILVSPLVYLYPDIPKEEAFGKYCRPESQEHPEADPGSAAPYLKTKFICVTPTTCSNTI

Broadly, the IC50 is the concentration at which inhibition is half-maximal. As for `COc1cccc([C@@H]2CN(C(=O)[C@@H]3CC[C@@H]4CCCC[C@H](NC(=O)c5cc6cc(C(F)P(=O)(O)O)ccc6s5)C(=O)N43)C3(CC3)[C@H]2C#N)c1` (relative stereo) [Compound 231, ((2-(((3S,6S,10aS)-3-((rel-trans)-7-cyano-6-(3-methoxyphenyl)-4-azaspiro[2.4]heptane-4-carbonyl)-5-oxodecahydropyrrolo[1,2-a]azocin-6-yl)carbamoyl)benzo[b]thiophen-5-yl)fluoromethyl)phosphonic acid], the IC50 in test [1] (setting [3]) was 1000 to 10000 nM; in test [2] (setting [4]) it was not above 300 nM.

On to `N#C[C@@H]1CN(C(=O)[C@@H]2CCC[C@@H]3CCC[C@H](NC(=O)c4cc5cc(C(F)P(=O)(O)O)ccc5s4)C(=O)N32)C[C@H]1c1ccccc1` (relative stereo) [Compound 551, ((2-(((4S,7S,10aS)-4-((rel-trans)-3-cyano-4-phenylpyrrolidine-1-carbonyl)-6-oxodecahydropyrido[1,2-a]azepin-7-yl)carbamoyl)benzo[b]thiophen-5-yl)fluoromethyl)phosphonic acid], for which the IC50 is 1000 to 10000 nM in test [1] (setting [3]) and not above 300 nM in test [2] (setting [4]).

With `N#C[C@H]1CN(C(=O)[C@@H]2CCC[C@@H]3CCCC[C@H](NC(=O)c4cc5cc(C(F)P(=O)(O)O)ccc5s4)C(=O)N32)C[C@@H]1c1ccccc1` (relative stereo) [Compound 552, ((2-(((4S,7S,11aS)-4-((rel-trans)-3-cyano-4-phenylpyrrolidine-1-carbonyl)-6-oxodecahydro-2H-pyrido[1,2-a]azocin-7-yl)carbamoyl)benzo[b]thiophen-5-yl)fluoromethyl)phosphonic acid], the IC50 is 1000 to 10000 nM in test [1] (setting [3]) and not above 300 nM in test [2] (setting [4]).

As to `N#C[C@@H]1CN(C(=O)[C@@H]2C[C@@H](O)[C@@H]3CCCCC[C@H](NC(=O)c4cc5cc(C(F)P(=O)(O)O)ccc5s4)C(=O)N23)C[C@H]1c1ccccc1` (relative stereo) [Compound 553, ((2-(((1R,3S,6S,11aS)-3-((rel-trans)-3-cyano-4-phenylpyrrolidine-1-carbonyl)-1-hydroxy-5-oxodecahydro-1H-pyrrolo[1,2-a]azonin-6-yl)carbamoyl)benzo[b]thiophen-5-yl)fluoromethyl)phosphonic acid], the IC50 in test [1] (setting [3]) is 1000 to 10000 nM; in test [2] (setting [4]), 300 to 3000 nM.

On to `N#CC1CN(C(=O)[C@@H]2CC[C@@H]3CC[C@H](NC(=O)c4cc5cc(C(F)(F)P(=O)(O)O)ccc5s4)C(=O)N32)C[C@@H]1c1ccccc1` (relative stereo) [Compound 733, ((2-(((3S,6S,8aS)-3-((rel-trans)-3-cyano-4-phenylpyrrolidine-1-carbonyl)-5-oxooctahydro-indolizin-6-yl)carbamoyl)benzo [b]thiophen-5-yl)difluoromethyl) phosphonic acid], for which the IC50 in test [1] (setting [3]) fell in the range of 1000 to 10000 nM; in test [2] (setting [4]), 300 to 3000 nM.

Regarding `N#CC1CN(C(=O)[C@@H]2C[C@@H](O)[C@H]3C/C=C\C[C@H](NC(=O)c4cc5cc(C(F)(F)P(=O)(O)O)ccc5s4)C(=O)N32)CC1c1ccccc1` (relative stereo) [Compound 758, ((2-(((1R,3S,6S,10aR,Z)-3-((rel-trans)-3-cyano-4-phenylpyrrolidine-1-carbonyl)-1-hydroxy-5-oxo-1,2,3,5,6,7,10,10a-octahydropyrrolo[1,2-a]azocin-6-yl)carbamoyl)benzo [b]thiophen-5-yl)difluoromethyl) phosphonic acid], the half-inhibitory concentration (IC50) in test [1] (setting [3]) is 1000 to 10000 nM; in test [2] (setting [5]) it was 300 to 3000 nM.

In the case of `N#C[C@@H]1CN(C(=O)[C@@H]2CC[C@@H]3CCCC[C@H](NC(=O)c4cc5cc(C(F)(F)P(=O)(O)O)ccc5s4)C(=O)N32)C[C@H]1c1cccc(=O)[nH]1` (relative stereo) [Compound 867, ((2-(((3S,6S,10aS)-3-((rel-trans)-3-cyano-4-(6-oxo-1,6-dihydropyridin-2-yl)pyrrolidine-1-carbonyl)-5-oxodecahydropyrrolo [1,2-a]azocin-6-yl)carbamoyl)benzo [b]thiophen-5-yl)difluoromethyl) phosphonic acid], the figures for the IC50 in test [1] (setting [3]) and in test [2] (setting [5]) were 100 to 1000 nM and not above 300 nM, respectively.

Regarding `O=C(N[C@H]1CCCC[C@H]2CC[C@@H](C(=O)N[C@H]3COCC3F)N2C1=O)c1cc2cc(C(F)(F)P(=O)(O)O)ccc2s1` (relative stereo) [Compound 1109, (difluoro(2-(((3S,6S,10aS)-3-(((rel-trans)-4-fluorotetrahydrofuran-3-yl)carbamoyl)-5-oxodecahydropyrrolo[1,2-a]azocin-6-yl)carbamoyl)benzo[b]thiophen-5-yl)methyl)phosphonic acid], the half-inhibitory concentration (IC50) in test [1] (setting [3]) is 100 to 1000 nM; in test [2] (setting [4]), 300 to 3000 nM.

On to `O=C(N[C@H]1CCCC[C@H]2CC[C@@H](C(=O)N[C@H]3COC[C@H]3F)N2C1=O)c1cc2cc(C(F)(F)P(=O)(O)O)ccc2s1` (relative stereo) [Compound 1111, (difluoro(2-(((3S,6S,10aS)-3-(((rel-trans)-4-fluorotetrahydrofuran-3-yl)carbamoyl)-5-oxodecahydropyrrolo[1,2-a]azocin-6-yl)carbamoyl)benzo[b]thiophen-5-yl)methyl)phosphonic acid], for which the figures for the IC50 in test [1] (setting [3]) and in test [2] (setting [4]) were 1000 to 10000 nM and 3000 to 30000 nM, respectively.

With `C[C@@]1(O)CC[C@H]2CC[C@@H](C(=O)N3C[C@H](c4ccccc4)[C@@H](C#N)C3)N2C(=O)[C@@H](NC(=O)c2cc3cc(C(F)(F)P(=O)(O)O)ccc3s2)C1` (single isomer, unassigned) [Compound 14, ((2-(((3S,6S,8R,10aR)-3-((3R,4S or 3S,4R)-3-cyano-4-phenylpyrrolidine-1-carbonyl)-8-hydroxy-8-methyl-5-oxodecahydropyrrolo [1,2-a]azocin-6-yl)carbamoyl)benzo[b]thiophen-5-yl)difluoromethyl) phosphonic acid], the IC50 in test [1] (setting [6]) is 100 to 1000 nM; in test [2] (setting [7]), not above 300 nM.

As to `N#C[C@@H]1CN(C(=O)[C@@H]2CC[C@@H]3CCCC[C@H](NC(=O)c4cc5cc([C@H](F)P(=O)(O)O)ccc5s4)C(=O)N32)C[C@H]1c1ccccc1` (single isomer, unassigned) [Compound 18, ((2-(((3S,6S,10aS)-3-((3S,4R or 3R,4S)-3-cyano-4-phenylpyrrolidine-1-carbonyl)-5-oxodecahydropyrrolo [1,2-a]azocin-6-yl)carbamoyl)benzo[b]thiophen-5-yl)fluoromethyl) phosphonic acid], the IC50 in test [1] (setting [6]) was 1000 to 10000 nM; in test [2] (setting [7]) it was not above 300 nM.

Turning to `N#C[C@@H]1CN(C(=O)[C@@H]2CC[C@@H]3CCCC[C@H](NC(=O)c4cc5cc([C@@H](F)P(=O)(O)O)ccc5s4)C(=O)N32)C[C@H]1c1ccccc1` (single isomer, unassigned) [Compound 19, ((2-(((3S,6S,10aS)-3-((3S,4R or 3R,4S))-3-cyano-4-phenylpyrrolidine-1-carbonyl)-5-oxodecahydropyrrolo [1,2-a]azocin-6-yl)carbamoyl)benzo[b]thiophen-5-yl)fluoromethyl) phosphonic acid], the 50% inhibitory concentration (IC50) in test [1] (setting [6]) is 1000 to 10000 nM; in test [2] (setting [7]), not above 300 nM.
